Laboratory results reported in US4960678A, “Photochromic compounds” (Tokuyama Soda Kabushiki Kaisha, priority 1987, dated 1990).

Legend:
Format in all cases: physicochemical
[1] = Fading speed of poly(methyl methacrylate) cast film after mercury lamp irradiation, Example 9; conditions: mercury lamp 60 seconds at 20°±1° C., time to half absorbance after irradiation stopped
Experimental: The fading speeds of the cast films prepared as above were measured by the following procedure.
The cast film was exposed to a mercury lamp (SHL-100 made by Toshiba Co., Ltd.) at 20°±1° C. for 60 seconds from a distance of 10 cm. Then, the irradiation was stopped, and the fading speed was determined from changes in the absorbance of the cast film measured by a spectrophotometer (220A made by Hitachi Limited). The fading speed is expressed by the time which is required to the absorbance of the cast film to a value half of (the absorbance of the cast film at a maximum absorption wavelength immediately after 60 second irradiation)--(the absorbance of the non-irradiated cast film at the maximum wavelength) after light irradiation for 60 seconds.

[2] = Xenon long-life fadeometer test of photochromic poly(methyl methacrylate) cast film (initial coloration density, T1/2, λmax), Example 9; conditions: poly(methyl methacrylate) cast film 0.1 mm; for Initial color density: initial coloration density (absorbance); for Initial color density / T1/2 (fatigue life): xenon fadeometer; for λmax: maximum absorption wavelength; for T1/2 (fatigue life): time for color density to decrease to half of initial value;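 on Initial color density: 0.5 part by weight compound dispersed with PMMA in 100 parts benzene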
Description: The thickness of the cast film was adjusted to 0.1 mm.
(§1) T1/2 is defined as the time required for the color density to decrease to half of its initial value when the film is exposed to the fadeometer.

[3] = Durability test of poly(allyl diglycol carbonate) lens impregnated with compound in silicone oil, Example 10; conditions: for Initial color density / λmax: impregnated from silicone oil; for T1/2: impregnated from silicone oil at 200° C. for 1 hour, xenon fadeometer
Experimental: as §1
The solution was impregnated in the surface of a lens composed of poly(allyl diglycol carbonate) at 200° C. for 1 hour. The concentration of the solution was adjusted to 1.0×10^-4 mole/g.

[4] = Fatigue life of film of fulgimide compound obtained in Example 1 with ultraviolet stabilizer, Example 11; conditions: fulgimide compound obtained in Example 1 (0.2 part) with 0.2 part ultraviolet stabilizer in poly(methyl methacrylate) film; xenon fadeometer
Description: as §1
(§2) One hundred parts of benzene, 10 parts of poly(methyl methacrylate), 0.2 part of the fulgimide compound obtained in Example 1 and 0.2 part of each of the compounds shown in Table 5 as an ultraviolet stabilizer were mixed to form a solution. The solution was cast on a slide glass (11.2×3.7cm) to form a cast film having a thickness of 0.1 mm.
(§3) The fatigue life of photochromic film was measured as in Example 9 by a xenon long-life fadeometer (FAL-25AX-HC made by Suga Testing Instrument Co., Ltd.).

[5] = Fatigue life of film of fulgimide compound obtained in Example 2 with ultraviolet stabilizer, Example 12; conditions: fulgimide compound obtained in Example 2 (0.2 part) with 0.2 part ultraviolet stabilizer in poly(methyl methacrylate) film; xenon fadeometer
Experimental: as §2, §3
Example 11 was repeated except that the fulgimide compound obtained in Example 2 was used instead of fulgimide compound used in Example 11.

[6] = Fatigue life of film of fulgimide compound obtained in Example 1 with varied amounts of ultraviolet stabilizer, Example 13; conditions: fulgimide compound of Example 1
Experimental: […] The solution was cast on a slide glass (11.2×3.7cm) to form a cast film having a thickness of 0.1 mm.
as §3

[7] = Fatigue life of films of fulgimide or fulgide compounds with Cyasorb UV1084, Example 14; conditions: with Cyasorb UV1084 (0.2 part) as ultraviolet stabilizer in poly(methyl methacrylate) film; xenon fadeometer
[8] = stabilizer amount added 0.002 (1 part per 100 parts by weight of fulgimide)
[9] = stabilizer amount added 0.1 (50 parts per 100 parts by weight of fulgimide)
[10] = stabilizer amount added 0.8 (400 parts per 100 parts by weight of fulgimide)
[11] = stabilizer amount added 20 (10000 parts per 100 parts by weight of fulgimide)

Structure (SMILES) | Initial color density [2] | λmax [2] [nm] | T1/2 (fatigue life) [2] [h] | other results
COC(=O)CN1C(=O)C2=C(C)c3ccsc3C3(C4CC5CC(C4)CC3C5)C2C1=O (stereo not shown) [(1)] | 0.62 | 535 | 38 | Fading speed [1]: 39 s; Initial color density [3]: 0.5; λmax [3]: 540 nm; T1/2 [3]: 40 h
COCCOCN1C(=O)C2=C(C)c3c(oc4ccccc34)C3(C4CC5CC(F)(C4)CC3(F)C5)C2C1=O (stereo not shown) [(16)] | 0.84 | 492 | 31 | –
CCOP(=O)([O-])Cc1cc(C(C)(C)C)c(O)c(C(C)(C)C)c1.CCOP(=O)([O-])Cc1cc(C(C)(C)C)c(O)c(C(C)(C)C)c1.[Ni+2] [Irgastab 2002] | – | – | – | T1/2 [4]: 147 h; T1/2 [5]: 176 h
CNC(=O)CN1C(=O)C2=C(C)c3cc([N+](=O)[O-])sc3C3(C4CC5CC(C4)CC3C5)C2C1=O (stereo not shown) [(11)] | 0.61 | 525 | 39 | –
CCN1C(=O)C2=C(C)c3cc(OC)c(OC)c(OC)c3C3(CC4CCC3C4)C2C1=O (stereo not shown) [(99)] | 0.24 | 510 | 8 | –
CCCCC1=C2C(=O)N(CC(C)(C)CCOC(=O)CBr)C(=O)C2C2(CC3CCC2C3(C)C)c2sc3c(c21)CCCC3 (stereo not shown) [(21)] | 0.52 | 576 | 36 | –
CC1=C2C(=O)OC(=O)C2C2(CC3CCC2(C)C3(C)C)c2sc(C)cc21 (stereo not shown) [(95)] | 0.53 | 540 | 11 | –
CC(C)(C)CC(C)(C)c1ccc([O-])c(Sc2cc(C(C)(C)CC(C)(C)C)ccc2[O-])c1.CCCCN.[Ni+2] [Cyasorb UV1084] | – | – | – | T1/2 [4]: 152 h; T1/2 [5]: 182 h; T1/2 [6, 8]: 110 h; T1/2 [6, 9]: 140 h; T1/2 [6, 10]: 160 h; T1/2 [6, 11]: 180 h
CC1=C2C(=O)N(CCc3ccc4ccccc4c3)C(=O)C2C2(CC3CCC2C3)c2sc(Br)cc21 (stereo not shown) [(3)] | 0.42 | 535 | 13 | Fading speed [1]: 71 s; T1/2 [7]: 77 h
CC1=C2C(=O)N(C[N+](=O)[O-])C(=O)C2C2(c3sc(C)cc31)C1CC3CC(C1)CC2C3 (stereo not shown) [(8)] | 0.72 | 556 | 30 | Initial color density [3]: 0.56; λmax [3]: 562 nm; T1/2 [3]: 32 h
COc1ccc2c3c(sc2c1)C1(C2CC4CC(C2)CC1C4)C1C(=O)N(CCl)C(=O)C1=C3C (stereo not shown) [(9)] | 0.59 | 542 | 30 | –
CCn1c2c(c3ccccc31)C(C)=C1C(=O)OC(=O)C1C21C2CCC(C2)C1(C)C (stereo not shown) [(94)] | 0.49 | 546 | 12 | –
CC1=C2C(=O)N(CCCCC(=O)OCCc3cccc4ccccc34)C(=O)C2C2(c3sccc31)C1CC3CC(C1)CC2C3 (stereo not shown) [(6)] | 0.49 | 538 | 16 | Fading speed [1]: 76 s; T1/2 [7]: 65 h
CC(=O)CN1C(=O)C2=C(c3ccccc3)c3cc(-c4ccccc4)sc3C3(C4CC5CC(C4)CC3C5)C2C1=O (stereo not shown) [(10)] | 0.58 | 601 | 40 | Initial color density [3]: 0.47; λmax [3]: 610 nm; T1/2 [3]: 43 h
CC1=C2C(=O)OC(=O)C2C2(CC3CCC2C3)c2sc(Br)cc21 (stereo not shown) [(7)] | 0.38 | 520 | 15 | Fading speed [1]: 21 s
CC1=C2C(=O)N(c3ccc(C)cc3)C(=O)C2C2(CC3CCC2C3)c2sc3ccccc3c21 (stereo not shown) [(98)] | – | 513 | 11 | –
CCC1=C2C(=O)N(CC(=O)CCC(=O)CCl)C(=O)C2C2(c3c1sc1ccccc31)C1(F)C(F)(F)C3(F)C(F)(F)C(F)(C1(F)F)C(F)(F)C2(F)C3(F)F (stereo not shown) [(18)] | 0.52 | 519 | 41 | –
CN1C(C)(C)CC(OC(=O)CCCCCCCCC(=O)OC2CC(C)(C)N(C)C(C)(C)C2)CC1(C)C [Tinuvin 765] | – | – | – | T1/2 [4]: 159 h; T1/2 [5]: 191 h; T1/2 [6, 8]: 106 h; T1/2 [6, 9]: 152 h; T1/2 [6, 10]: 166 h; T1/2 [6, 11]: 182 h
CCCCC(Cc1cc(C(C)(C)C)c(O)c(C(C)(C)C)c1)(C(=O)OC1CC(C)(C)N(C)C(C)(C)C1)C(=O)OC1CC(C)(C)N(C)C(C)(C)C1 [Tinuvin 144] | – | – | – | T1/2 [4]: 152 h; T1/2 [5]: 182 h
CC1=C2C(=O)N(CC#N)C(=O)C2C2(c3sccc31)C1CC3CC(C1)CC2C3 (stereo not shown) [(2)] | 0.83 | 553 | 46 | Fading speed [1]: 26 s; T1/2 [7]: 182 h; Initial color density [3]: 0.64; λmax [3]: 562 nm; T1/2 [3]: 50 h
COC12CC3CC(C1)C1(c4oc5ccccc5c4C(C)=C4C(=O)N(CC(=O)OC(C)(C)CCC#N)C(=O)C41)C(C3)C2 (stereo not shown) [(14)] | 0.82 | 490 | 42 | Initial color density [3]: 0.63; λmax [3]: 500 nm; T1/2 [3]: 42 h
CC1=C2C(=O)N(CC#N)C(=O)C2C2(c3occc31)C1CC3CC(C1)CC2C3 (stereo not shown) [(28)] | 0.9 | 535 | 48 | Initial color density [3]: 0.72; λmax [3]: 540 nm; T1/2 [3]: 49 h
CC1=C2C(=O)N(CC(=O)OCC(C)C)C(=O)C2C2(CC3CCC2C3)c2sc(Br)cc21 (stereo not shown) [(19)] | 0.47 | 520 | 43 | –
CC1=C2C(=O)N(c3ccccc3)C(=O)C2C2(CC3CCC2C3)c2sc(Br)cc21 (stereo not shown) [(97)] | 0.31 | 506 | 8 | –
CCN1C(=O)C2=C(C)c3ccsc3C3(C4CC5CC(C4)CC3C5)C2C1=O (stereo not shown) [(X), reference compound] | 0.7 | 530 | 3 | –
CCCCN(CCCC)C(=S)[S-].CCCCN(CCCC)C(=S)[S-].[Ni+2] [Rylex NBC] | – | – | – | T1/2 [4]: 158 h; T1/2 [5]: 190 h
COC(=O)C(C)N1C(=O)C2=C(c3ccccc3)c3ccoc3C3(C4CC5CC3CC(Cl)(C5)C4)C2C1=O (stereo not shown) [(12)] | 0.79 | 560 | 31 | T1/2 [7]: 160 h
CCC(C(=O)OCCc1ccc2ccccc2c1)N1C(=O)C2=C(C)c3ccsc3C3(C4CC5CC(C4)CC3C5)C2C1=O (stereo not shown) [(5)] | 0.51 | 520 | 24 | Fading speed [1]: 58 s; Initial color density [3]: 0.4; λmax [3]: 520 nm; T1/2 [3]: 31 h
CCCCC12CC3CC(C1)C1(c4c(n(C)c5ccccc45)C(C)=C4C(=O)N(CC(=O)OCCC#N)C(=O)C41)C(Cl)(C3)C2 (stereo not shown) [(29)] | 0.71 | 576 | 44 | Initial color density [3]: 0.56; λmax [3]: 583 nm; T1/2 [3]: 45 h
CCCCC12CC3CC(C1)C1(c4c(OC)cc(OC)cc4C(c4ccccc4)=C4C(=O)N(C(C)(C)C#N)C(=O)C41)C(C3)C2 (stereo not shown) [(17)] | 0.49 | 550 | 48 | T1/2 [7]: 188 h
